From patent publication US20260000079A1, “COMPOSITIONS AND METHODS FOR MODULATING IMMUNITY IN PLANTS” (BOYCE THOMPSON INSTITUTE FOR PLANT RESEARCH, INC., priority 2019, published 2026)

How the values were obtained:
tomato root exudates = experiment: LC-MS of root exudates and growth media of ascr #18-treated tomato seedlings; type: in vivo, Solanum lycopersicum
Method: Data are average±SEM (n=6), n.d.=not detected. […] Exudates from approximately 40 seedlings were collected in distilled water and pooled. Abundances of ascarosides are shown as the peak area, as measured by LC-MS. Data are average±SEM (n=3); n.d.=not detected. FIGS. 5C and 5D show the relative abundances of ascarosides in root exudates of eight-day old tomato seedlings treated with 10 nM (FIG. 5C) or 1000 nM (FIG. 5D) ascr #18 for 6 hours. Exudates from approximately 10 seedlings were collected in distilled water and pooled. Abundances of ascarosides are shown as the peak area, as measured by LC-MS. Data are average±SEM (n=3); n.d.=not detected. FIG. 5E provides the relative abundances of ascr #10, ascr #1, and ascr #9 in the growth media of eight-day old tomato seedlings supplemented with 1 μM ascr #18. Ten-gram media samples were collected at different time points over a 48 hour period for metabolome extraction. Abundances of ascarosides are shown as the peak area, as measured by LC-MS.
To test this possibility, root-secreted metabolites of ascr #18- and mock-treated Arabidopsis were compared (FIG. 5A). For this experiment, 10-day old Arabidopsis seedlings were treated in growth media supplemented with ascr #18 for 6 hours prior to collection of exudates from roots submerged in water. […] Analogous results were obtained in experiments with tomato roots (FIG. 5C, 5D).

[1] = system: entomopathogenic nematode species; settings: Kaplan, et al. (2012); cited from earlier work
[2] = system: Pseudomonas syringae DC3000; experiment: Bacterial growth assay in ascr #18-pretreated Arabidopsis; type: in vivo, Pseudomonas syringae pv. tomato; settings: 1 μM, 24 hours pretreatment; acx1acx5 and wildtype Arabidopsis
Method: FIG. 4A provides a schematic of the experimental designs for assessing activation of defense pathways and resistance to nematodes and bacteria. […] Bacterial growth was assayed 3 days post inoculation. Data are averages±s.d. (n=17). […] Arabidopsis seedlings were treated with buffer or the indicated concentrations of ascr #18 for 48 hours before inoculation with approximately 300 freshly hatched M. incognita J2 larvae. The numbers of root galls of infected plants were counted 6 weeks post inoculation. Data are averages±s.d. (n≥15). […] Larvae touching root tips (FIG. 4D) or the whole area of roots (FIG. 4E) were counted at 6 hours post seedling transfer. […] Transcript levels were determined by qRT-PCR and plotted as relative fold-change compared to mock treated plants. […]
Given the rapid conversion of ascr #18 into shorter-chained ascarosides via pβo, the inventors investigated whether metabolism of the pathogen-produced compound ascr #18 produced by plant pathogenic nematodes is required for the activation of plant defense responses and resistance to other non-nematode pathogens. […] To test whether ascaroside metabolism plays a role in ascr #18-mediated enhanced resistance to a bacterial pathogen, the effect of ascr #18 treatment on infection with Pseudomonas syringae DC3000 was evaluated in the acx1acx5 mutant and wildtype Arabidopsis.

[3] = system: bacteria, viruses, fungi, oomycetes, and nematodes; settings: Manosalva, et al. (2015); cited from earlier work
Meloidogyne incognita = experiment: Arabidopsis nematode infection assay (root galls); type: in vivo; settings: 48 hours root pretreatment
Method: FIG. 4A provides a schematic of the experimental designs for assessing activation of defense pathways and resistance to nematodes and bacteria. […] Bacterial growth was assayed 3 days post inoculation. Data are averages±s.d. (n=17). […] Arabidopsis seedlings were treated with buffer or the indicated concentrations of ascr #18 for 48 hours before inoculation with approximately 300 freshly hatched M. incognita J2 larvae. The numbers of root galls of infected plants were counted 6 weeks post inoculation. Data are averages±s.d. (n≥15). […] Arabidopsis seedlings were treated with the indicated concentrations of ascr #18 for 48 hours before transfer into 12-well plates containing Pluronic® F-127 gel with ˜200 freshly hatched M. incognita J2 larvae. Larvae touching root tips (FIG. 4D) or the whole area of roots (FIG. 4E) were counted at 6 hours post seedling transfer. Data are average±s.d. (n=12). […] Transcript levels were determined by qRT-PCR and plotted as relative fold-change compared to mock treated plants. Data are averages±s.d (n≥6). *P≤0.05; **P≤0.005; ***P≤0.0005; two-tailed t-test.
For Arabidopsis nematode infection assays, Meloidogyne incognita was propagated and hatched as described (Manosalva, et al. (2015) Nat. Commun. 6:7795). Briefly, M. incognita were propagated on tomato (Solanum lycopersicum cv. Tiny Tim). M. incognita eggs were then isolated from egg masses on tomato roots with 0.5% sodium hypochlorite and rinsed with water on a 25-μm sieve. Collected nematode eggs were treated in a solution of 0.02% sodium azide for 20 minutes, and then hatched over water containing 1.5 mg/mL gentamycin sulfate and 0.05 mg/mL nystatin at room temperature on a Baermann pan for three days. Hatched second-stage juveniles (J2) were collected, surface sterilized with an aqueous solution of mercuric chloride (0.004%) and sodium azide (0.004%) for 10 minutes, and rinsed three times with sterile distilled water. […] Galls for M. incognita were counted under a microscope six weeks after inoculation. […]

[4] = system: MAPK, jasmonic acid and salicylic acid signaling pathways; settings: Manosalva, et al. (2015); cited from earlier work

C[C@H](CCC(=O)O)O[C@@H]1O[C@@H](C)[C@H](O)C[C@H]1O [ascr #9]
relative abundance among root-excreted ascr #18 metabolites (tomato root exudates): most abundant
dispersal behavior [1]: mediate dispersal behavior

CC1O[C@@H](O[C@@H](C)CCCCCCCCC(=O)O)C(O)C[C@H]1O (stereo in doubt) [ascr #18, (10R)-(3′R,5′R-dihydroxy-6′S-methyl-(2H)-tetrahydropyran-2-yloxy)-undecanoic acid]
protection against P. syringae infection (bacterial growth 3 days post inoculation) [2]: comparable levels of protection
resistance of plants to pathogens [3]: enhance resistance of monocot and dicot plants to a wide range of pathogens
protection against M. incognita (root galls 6 weeks post inoculation) (Meloidogyne incognita; acx1acx5 mutant): no effect
protection against M. incognita (root galls 6 weeks post inoculation) (Meloidogyne incognita; wildtype, 10 nM): significant protection
protection against M. incognita (root galls 6 weeks post inoculation) (Meloidogyne incognita; wildtype, 50 nM): significant protection
activation of defense signaling pathways in monocots and dicots [4]: activation of conserved defense signaling pathways
